In patent publication US11427548B2 (Arvinas Operations, Inc., priority 2015, dated 2022):
Read-outs that look alike come from different tables or passages of the source.

Biological target: T1, Androgen Receptor (Homo sapiens, UniProt P10275)
T1 construct: endogenous in cells; host or cells: VCaP cells
T1 sequence (P10275 1-920): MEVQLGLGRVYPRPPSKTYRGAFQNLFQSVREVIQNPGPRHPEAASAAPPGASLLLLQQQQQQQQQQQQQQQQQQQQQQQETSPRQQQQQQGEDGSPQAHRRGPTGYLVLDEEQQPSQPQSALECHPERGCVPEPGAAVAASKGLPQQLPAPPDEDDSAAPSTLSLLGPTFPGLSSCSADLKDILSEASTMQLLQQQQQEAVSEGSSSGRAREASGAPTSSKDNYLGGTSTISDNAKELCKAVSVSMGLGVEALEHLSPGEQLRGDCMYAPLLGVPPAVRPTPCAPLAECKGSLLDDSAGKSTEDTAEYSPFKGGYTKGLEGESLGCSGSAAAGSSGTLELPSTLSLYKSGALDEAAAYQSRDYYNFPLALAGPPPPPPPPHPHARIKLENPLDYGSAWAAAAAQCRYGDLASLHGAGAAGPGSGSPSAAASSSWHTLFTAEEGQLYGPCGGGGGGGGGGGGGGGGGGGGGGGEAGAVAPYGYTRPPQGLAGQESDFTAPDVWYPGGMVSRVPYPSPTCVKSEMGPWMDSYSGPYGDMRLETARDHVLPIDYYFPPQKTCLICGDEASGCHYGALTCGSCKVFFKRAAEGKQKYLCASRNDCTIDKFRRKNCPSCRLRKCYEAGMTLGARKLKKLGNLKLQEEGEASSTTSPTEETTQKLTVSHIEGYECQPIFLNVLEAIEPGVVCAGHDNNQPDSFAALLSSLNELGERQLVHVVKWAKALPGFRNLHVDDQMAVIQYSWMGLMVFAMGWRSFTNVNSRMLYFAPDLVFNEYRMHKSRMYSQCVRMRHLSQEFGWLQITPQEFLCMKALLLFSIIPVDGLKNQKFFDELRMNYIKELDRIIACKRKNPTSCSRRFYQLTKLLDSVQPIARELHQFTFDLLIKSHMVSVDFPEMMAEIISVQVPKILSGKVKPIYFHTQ
Assay: Androgen Receptor ELISA assay (PathScan AR ELISA) in VCaP cells: AR degradation, Dmax and DC50
Format: cell-based
Method in brief: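 VCaP cells, 30,000/well, grown ≥3 days in phenol red-free RPMI with 5% charcoal-stripped FBS; compound added in 0.1% DMSO with 0.1 nM R1881, 7 half-log doses, 24 h. Lysate AR quantified by PathScan sandwich ELISA, HRP/TMB read at 450 nm, giving DC50 and Dmax.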

[1] = VCaP cells; Table 35; read-out: VCaP DC50
[2] = VCaP, VCaP cells; Table 35; read-out: VCaP Dmax (%)
[3] = VCaP cells; Table 36; read-out: VCaP DC50
[4] = read-out: VCaP DC50; concentration that caused 50% Androgen Receptor degradation, VCaP cells (Table 32)
[5] = VCaP, VCaP cells; Table 36; read-out: VCaP Dmax (%)
[6] = read-out: VCaP DC50; concentration that caused 50% Androgen Receptor degradation, VCaP cells

Row | SMILES | Dmax (VCaP, read-out: VCaP Dmax (%)) [%] | DC50 [1] [nM] | Dmax [2] [%] | further results
1 | Cc1cn(-c2ccc([C@H](C)NC(=O)[C@@H]3C[C@@H](O)CN3C(=O)[C@@H](NC(=O)COCCCOCCCCCOc3ccc(N4C(=S)N(c5ccc(C#N)c(C(F)(F)F)c5)C(=O)C4(C)C)cc3)C(C)(C)C)cc2)cn1 [Example 663, (2S,4R)-1-((S)-2-(2-(3-((5-(4-(3-(4-cyano-3-(trifluoromethyl)phenyl)-5,5-dimethyl-4-oxo-2-thioxoimidazolidin-1-yl)phenoxy)pentyl)oxy)propoxy)acetamido)-3,3-dimethylbutanoyl)-4-hydroxy-N-((S)-1-(4-(4-methyl-1H-imidazol-1-yl)phenyl)ethyl)pyrrolidine-2-carboxamide] | < 25 | – | – | DC50 (read-out: VCaP DC50; VCaP cells; Table 36): > 501 nM
2 | CC(C)(C)[C@H](NC(=O)COCCCCCNc1ccc(C(=O)N[C@H]2C(C)(C)[C@H](Oc3ccc(C#N)c(Cl)c3)C2(C)C)cc1)C(=O)N1C[C@H](O)C[C@H]1C(=O)NCc1ccc(C2=CCNCC2)cc1 [Example 499] | – | > 501 | 26 to 50 | –
3 | Cc1ncsc1-c1ccc([C@H](C)NC(=O)[C@@H]2C[C@@H](O)CN2C(=O)[C@@H](NC(=O)COCCN(CCCc2ccc(C(=O)N[C@H]3C(C)(C)[C@H](Oc4ccc(C#N)c(Cl)c4)C3(C)C)nc2)CCC(F)(F)F)C(C)(C)C)cc1 [Example 699, N-((1r,3r)-3-(3-chloro-4-cyanophenoxy)-2,2,4,4-tetramethylcyclobutyl)-5-(3-((2-(2-(((S)-1-((2S,4R)-4-hydroxy-2-(((S)-1-(4-(4-methylthiazol-5-yl)phenyl)ethyl)carbam-oyl)pyrrolidin-1-yl)-3,3-dimethyl-1-oxobutan-2-yl)amino)-2-oxoethoxy)ethyl)(3,3,3-trifluoropropyl)amino)propyl)picolinamide] | – | – | – | DC50 [3]: < 50 nM; Dmax (VCaP, read-out: VCaP Dmax (%), VCaP cells; Table 36): 26 to 50%
4 | CC(C)(C)[C@H](NC(=O)COCCCCOc1ccc(-c2ccc(N3C(=S)N(c4ccc(C#N)c(Cl)c4)C(=O)C3(C)C)cc2)nc1)C(=O)N1C[C@H](O)C[C@H]1C(=O)NCc1ccc(-c2cnco2)cc1 [Example 89] | > 71 | – | – | DC50 [4]: < 50 nM
5 | CC(C)(C)[C@H](NC(=O)COCCCCOc1ccc(-c2ccc(N3C(=S)N(c4ccc(C#N)c(C(F)(F)F)c4)C(=O)C3(C)C)c(F)c2)cc1)C(=O)N1C[C@H](O)C[C@H]1C(=O)NCc1ccc(-c2cncs2)cc1 [Example 117, (2S,4R)-1-[(2S)-2-(2-{4-[4-(4-{3-[4-cyano-3-(trifluoromethyl)phenyl]-5,5-dimethyl-4-oxo-2-sulfanylideneimidazolidin-1-yl}-3-fluorophenyl)phen-oxy]butoxy}acetamido)-3,3-dimethylbutanoyl]-4-hydroxy-N-{[4-(1,3-thiazol-5-yl)phenyl]methyl}pyrrolidine-2-carboxamide] | > 71 | – | – | DC50 [4]: < 50 nM
6 | Cc1ncsc1-c1ccc(CNC(=O)[C@@H]2C[C@@H](O)CN2C(=O)[C@@H](NC(=O)CNCCCCCOc2ccc(C(=O)N[C@H]3C(C)(C)[C@H](Oc4ccc(C#N)c(Cl)c4)C3(C)C)cc2)C(C)(C)C)cc1 [Example 188] | – | – | – | Dmax (VCaP, highest percentage of Androgen Receptor degradation observed, VCaP cells (Table 32); read-out: VCaP Dmax (%)): > 71%; DC50 (concentration that caused 50% Androgen Receptor degradation, VCaP cells (Table 32); read-out: VCaP DC50): < 50 nM
7 | CC(C)(C)[C@H](NC(=O)COCCCCCNc1ccc(C(=O)N[C@H]2C(C)(C)[C@H](Oc3ccc(C#N)c(Cl)c3)C2(C)C)cc1)C(=O)N1C[C@H](O)C[C@H]1C(=O)NCc1ccc(-n2cnnn2)cc1 [Example 505] | – | < 50 | 26 to 50 | –
8 | CC[C@H](NC(=O)[C@@H]1C[C@@H](O)CN1C(=O)[C@@H](NC(=O)COCCN1CCN(c2ccc(C(=O)N[C@H]3C(C)(C)[C@H](Oc4ccc(C#N)c(Cl)c4)C3(C)C)cn2)CC1)C(C)(C)C)c1ccc(-c2scnc2C)cc1 [Example 649, N-((1r,3r)-3-(3-chloro-4-cyanophenoxy)-2,2,4,4-tetramethylcyclobutyl)-6-(4-(2-(2-(((S)-1-((2S,4R)-4-hydroxy-2-(((S)-1-(4-(4-methylthiazol-5-yl)phenyl)propyl)carbam-moyl)pyrrolidin-1-yl)-3,3-dimethyl-1-oxobutan-2-yl)amino)-2-oxoethoxy)ethyl)pipera-zin-1-yl)nicotinamide] | – | – | – | DC50 [3]: < 50 nM; Dmax [5]: > 71%
9 | Cc1ncsc1-c1ccc(CNC(=O)[C@@H]2C[C@@H](O)CN2C(=O)[C@@H](NC(=O)COCCCOCCC(O)CCOc2ccc(N3C(=S)N(c4ccc(C#N)c(C(F)(F)F)c4)C(=O)C3(C)C)cc2)C(C)(C)C)cc1 (stereo partly drawn) [Example 13, (2S,4R)-1-[(2S)-2-[2-(3-{[5-(4-{3-[4-cyano-3-(trifluoromethyl)phenyl]-5,5-dimethyl-4-oxo-2-sulfanylideneimidazolidin-1-yl}phenoxy)-3-hydroxypentyl]oxy}propoxy)acetamido]-3,3-dimethylbutanoyl]-4-hydroxy-N-{[4-(4-methyl-1,3-thiazol-5-yl)phenyl]methyl}pyrrolidine-2-carboxamide] | 26 to 50 | – | – | DC50 [6]: < 50 nM
10 | Cc1ncoc1-c1ccc(CNC(=O)[C@@H]2C[C@@H](O)CN2C(=O)[C@@H](NC(=O)COCCCOCCCCOc2ccc(N3C(=S)N(c4ccc(C#N)c(Cl)c4)C(=O)C3(C)C)cc2)C(C)C)cc1 [Example 39] | 26 to 50 | – | – | DC50 [6]: < 50 nM
11 | Cc1ncsc1-c1ccc([C@H](C)NC(=O)[C@@H]2C[C@@H](O)CN2C(=O)[C@@H](NC(=O)CCCc2ccc(C(=O)N[C@H]3C(C)(C)[C@H](Oc4ccc(C#N)c(Cl)c4)C3(C)C)cc2)C(C)(C)C)cc1 [Example 747, (2S,4R)-1-((S)-2-(4-(4-(((1r,3S)-3-(3-chloro-4-cyanophenoxy)-2,2,4,4-tetramethylcyclobutyl)carbamoyl)phenyl)butan-amido)-3,3-dimethylbutanoyl)-4-hydroxy-N-((S)-1-(4-(4-methylthiazol-5-yl)phenyl)ethyl)pyrrolidine-2-carboxamide] | – | – | – | DC50 [3]: > 501 nM; Dmax [5]: < 25%
12 | Cc1ncsc1-c1ccc([C@H](C)NC(=O)[C@@H]2C[C@@H](O)CN2C(=O)[C@@H](NC(=O)CN2CCN(CC3CCN(c4ccc(C(=O)N[C@H]5C(C)(C)[C@H](Oc6ccc(C#N)c(Cl)c6)C5(C)C)cn4)CC3)CC2)C(C)(C)C)cc1 [Example 853, N-((1r,3r)-3-(3-chloro-4-cyanophenoxy)-2,2,4,4-tetramethylcyclobutyl)-6-(4-((4-(2-(((S)-1-((2S,4R)-4-hydroxy-2-(((S)-1-(4-(4-methylthiazol-5-yl)phenyl)ethyl)carbamoyl)pyrrolidin-1-yl)-3,3-dimethyl-1-oxobutan-2-yl)amino)-2-oxoethyl)piperazin-1-yl)methyl)piperidin-1-yl) nicotinamide] | > 71 | – | – | DC50 [3]: < 50 nM
13 | Cc1ncsc1-c1ccc([C@H](C)NC(=O)[C@@H]2CC(OC(=O)[C@@H]3CCCN3)CN2C(=O)[C@@H](NC(=O)COCCCCCNc2ccc(C(=O)N[C@H]3C(C)(C)[C@H](Oc4ccc(C#N)c(Cl)c4)C3(C)C)cc2)C(C)(C)C)cc1 (some centres unmarked) [Example 461] | – | < 50 | > 71 | –
14 | Cc1ncsc1-c1ccc([C@H](C)NC(=O)[C@@H]2C[C@@H](OC(=O)C(C)C)CN2C(=O)[C@@H](NC(=O)COCCCCCNc2ccc(C(=O)N[C@H]3C(C)(C)[C@H](Oc4ccc(C#N)c(Cl)c4)C3(C)C)cc2)C(C)(C)C)cc1 [Example 468] | – | < 50 | > 71 | –
15 | C[C@H](NC(=O)[C@@H]1C[C@@H](O)CN1C(=O)[C@@H](NC(=O)COCCCCOc1ccc(C(=O)N[C@H]2C(C)(C)[C@H](Oc3ccc(C#N)c(Cl)c3)C2(C)C)cc1)C(C)(C)C)c1ccc(-c2ncon2)cc1 [Example 569] | – | < 50 | > 71 | –
16 | Cc1ncsc1-c1ccc(CNC(=O)[C@@H]2C[C@@H](O)CN2C(=O)[C@@H](NC(=O)CN(C)CCCCOCCCOc2ccc(N3C(=S)N(c4ccc(C#N)c(C(F)(F)F)c4)C(=O)C3(C)C)cc2)C(C)(C)C)cc1 [Example 317] | 26 to 50 | – | – | DC50 (read-out: VCaP DC50; VCaP cells; Table 34): 51 to 500 nM
